According to patent US10800792B2, “Inhibitors of Bruton's tyrosine kinase and method of their use” (JANSSEN PHARMACEUTICA NV, priority 2015, dated 2020):
Like-named read-outs stand apart in the source and are kept apart here.

Target: unphosphorylated-BTK kinase domain (UP-BTK), GST-tagged human BTK (389-659aa) (Homo sapiens (Human), UniProt Q06187)
Assay: BTK kinase Lanthascreen binding assay
Settings: 60 minutes incubation, pIC50 = negative log of the IC50 in molar; for IC50: read-out: BTK_I_binding pIC50 (converted)
Procedure, shortened: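 A fluorescent tracer is bound to unphosphorylated BTK; test compound is added to compete it off; the Lanthascreen signal is read and IC50 is fitted, then reported as its negative log in molar.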

[1] = Lanthascreen tracer competition

unphosphorylated-BTK kinase domain (UP-BTK), GST-tagged human BTK (389-659aa), sequence (Q06187 389-659): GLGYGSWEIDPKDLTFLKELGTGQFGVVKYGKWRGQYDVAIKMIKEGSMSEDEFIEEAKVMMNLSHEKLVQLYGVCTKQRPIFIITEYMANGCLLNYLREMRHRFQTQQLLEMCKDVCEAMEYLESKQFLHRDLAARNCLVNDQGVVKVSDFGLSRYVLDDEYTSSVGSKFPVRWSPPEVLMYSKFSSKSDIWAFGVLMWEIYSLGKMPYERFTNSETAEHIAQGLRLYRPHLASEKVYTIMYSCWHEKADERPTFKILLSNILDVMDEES

Structure (SMILES) | BTK_I_binding pIC50 [1] | also measured
Cc1cc(OC2CCCC2)ncc1N1C(=O)Nc2c(C(=O)N[C@@H]3CCCNC3)sc3nccc1c23 (single isomer, unassigned) [Example 761, (R)-5-(*S)-(6-(Cyclopentyloxy)-4-methylpyridin-3-yl)-4-oxo-N-(piperidin-3-yl)-4,5-dihydro-3H-1-thia-3,5,8-triazaacenaphthylene-2-carboxamide] | 7.1 | 
Cc1cc(OC2CCCC2)ncc1N1C(=O)Nc2c(C(=O)N[C@@H]3CCCNC3)sc3nccc1c23 (single isomer, unassigned) [Example 762, (R)-5-(*R)-(6-(Cyclopentyloxy)-4-methylpyridin-3-yl)-4-oxo-N-(piperidin-3-yl)-4,5-dihydro-3H-1-thia-3,5,8-triazaacenaphthylene-2-carboxamide] | <6 | 
C=CC(=O)N1CCC[C@@H](NC(=O)c2sc3nccc4c3c2NC(=O)N4c2cnc(OC3CCCC3)cc2C)C1 (single isomer, unassigned) [Example 768, (R)—N-(1-Acryloylpiperidin-3-yl)-5-(*S)-(6-(cyclopentyloxy)-4-methylpyridin-3-yl)-4-oxo-4,5-dihydro-3H-1-thia-3,5,8-triazaacenaphthylene-2-carboxamide] | 8.2 | 
C=CC(=O)N1CCC[C@@H](NC(=O)c2sc3nccc4c3c2NC(=O)N4c2cnc(OC3CCCC3)cc2C)C1 (single isomer, unassigned) [Example 769, (R)—N-(1-Acryloylpiperidin-3-yl)-5-(*R)-(6-(cyclopentyloxy)-4-methylpyridin-3-yl)-4-oxo-4,5-dihydro-3H-1-thia-3,5,8-triazaacenaphthylene-2-carboxamide] | 6.2 | 
Cc1cc(Oc2ccccc2)ccc1N1C(=O)Nc2c(C(=O)N[C@@H]3CCCN(C(=O)C(C#N)=CC4(C)COC4)C3)sc3nccc1c23 (single isomer, unassigned) [Example 782, (R,EZ)—N-(1-(2-Cyano-3-(3-methyloxetan-3-yl)acryloyl)piperidin-3-yl)-5-(*S)-(2-methyl-4-phenoxyphenyl)-4-oxo-4,5-dihydro-3H-1-thia-3,5,8-triazaacenaphthylene-2-carboxamide] | 7.7 | 
C=CC(=O)N1CCC[C@@H](NC(=O)c2sc3nccc4c3c2NC(=O)N4c2cnc(OC(C)C)cc2C)C1 (single isomer, unassigned) [Example 789, (R)—N-(1-Acryloylpiperidin-3-yl)-5-(*S)-(6-isopropoxy-4-methylpyridin-3-yl)-4-oxo-4,5-dihydro-3H-1-thia-3,5,8-triazaacenaphthylene-2-carboxamide] | 8.1 | 
Cc1nc(Oc2ccccc2)ccc1N1C(=O)Nc2c(C(=O)N[C@@H]3CCOC3)sc3nccc1c23 (single isomer, unassigned) [Example 793, (R)-5-(*S)-(2-Methy-6-phenoxypyridin-3-yl)-4-oxo-N-(tetrahydrofuran-3-yl)-4,5-dihydro-3H-1-thia-3,5,8-triazaacenaphthylene-2-carboxamide] | 6.8 | 
Cc1cc(OC(C)C)ncc1N1C(=O)Nc2c(C(=O)N[C@@H]3CCCNC3)sc3nccc1c23 (single isomer, unassigned) [Example 794, (R)-5-(*S)-(6-Isopropoxy-4-methylpyridin-3-yl)-4-oxo-N-(piperidin-3-yl)-4,5-dihydro-3H-1-thia-3,5,8-triazaacenaphthylene-2-carboxamide] | 6.5 | 
Cc1cc(OC2CCCC2)ncc1N1C(=O)Nc2c(C(=O)N[C@@H]3CCNC3)sc3nccc1c23 (single isomer, unassigned) [Example 797, (R)-5-(*S)-(6-(Cyclopentyloxy)-4-methylpyridin-3-yl)-4-oxo-N-(pyrrolidin-3-yl)-4,5-dihydro-3H-1-thia-3,5,8-triazaacenaphthylene-2-carboxamide] | 6.3 | 
Cc1cc(OCC(C)C)ncc1N1C(=O)Nc2c(C(=O)N[C@@H]3CCNC3)sc3nccc1c23 (single isomer, unassigned) [Example 798, (R)-5-(*S)-(6-Isobutoxy-4-methylpyridin-3-yl)-4-oxo-N-(pyrrolidin-3-yl)-4,5-dihydro-3H-1-thia-3,5,8-triazaacenaphthylene-2-carboxamide] | 6.3 | 
C=CC(=O)N1CCC[C@@H](NC(=O)c2sc3nccc4c3c2NC(=O)N4c2cnc(OC(C)C)cc2C)C1 (single isomer, unassigned) [Example 804, (R)—N-(1-Acryloylpiperidin-3-yl)-5-(*R)-(6-isopropoxy-4-methylpyridin-3-yl)-4-oxo-4,5-dihydro-3H-1-thia-3,5,8-triazaacenaphthylene-2-carboxamide] | 6.1 | 
Cc1cc(OC(C)C)ncc1N1C(=O)Nc2c(C(=O)N[C@@H]3CCCNC3)sc3nccc1c23 (single isomer, unassigned) [Example 806, (R)-5-(*R)-(6-Isopropoxy-4-methylpyridin-3-yl)-4-oxo-N-(piperidin-3-yl)-4,5-dihydro-3H-1-thia-3,5,8-triazaacenaphthylene-2-carboxamide] | <6 | 
C=CC(=O)N1CCC[C@@H](NC(=O)c2sc3nccc4c3c2NC(=O)N4c2ccc(OC3CCOCC3)cc2C)C1 (single isomer, unassigned) [Example 813, (R)—N-(1-Acryloylpiperidin-3-yl)-5-(*S)-(2-methyl-4-((tetrahydro-2H-pyran-4-yl)oxy)phenyl)-4-oxo-4,5-dihydro-3H-1-thia-3,5,8-triazaacenaphthylene-2-carboxamide] |  | IC50 [1]: > 1000 nM
C=CC(=O)N1CCC[C@@H](NC(=O)c2sc3nccc4c3c2NC(=O)N4c2ccc(OC3CCOCC3)cc2C)C1 (single isomer, unassigned) [Example 814, (R)—N-(1-Acryloylpiperidin-3-yl)-5-(*R)-(2-methyl-4-((tetrahydro-2H-pyran-4-yl)oxy)phenyl)-4-oxo-4,5-dihydro-3H-1-thia-3,5,8-triazaacenaphthylene-2-carboxamide] | <6 | 
C=CS(=O)(=O)N1CC[C@@H](NC(=O)c2sc3nccc4c3c2NC(=O)N4c2ccc(Oc3ccccc3)cc2C)C1 (single isomer, unassigned) [Example 834, (R)-5-(*S)-(2-Meth-4-phenoxyphenyl)-4-oxo-N-(1-(vinylsulfonyl)pyrrolidin-3-yl)-4,5-dihydro-3H-1-thia-3,5,8-triazaacenaphthylene-2-carboxamide] | 8.0 | 
Cc1cc(Oc2ccccc2)ccc1N1C(=O)Nc2c(C(=O)N[C@@H]3CCCN(C(=O)/C=C/CN4CCCC4)C3)sc3nccc1c23 (single isomer, unassigned) [Example 845, (R,E)-5-(*S)-(2-Methyl-4-phenoxyphenyl)-4-oxo-N-(1-(4-(pyrrolidin-1-yl)but-2-enoyl)piperidin-3-yl)-4,5-dihydro-3H-1-thia-3,5,8-triazaacenaphthylene-2-carboxamide] | 7.6 | 
Cc1cc(Oc2ccccc2)ccc1N1C(=O)Nc2c(C(=O)N[C@@H]3CCCN(C(=O)/C(C#N)=C/C(C)(C)C)C3)sc3nccc1c23 (single isomer, unassigned) [Example 866, (R,E)-N-(1-(2-Cyano-4,4-dimethylpent-2-enoyl)piperidin-3-yl)-5-(*S)-(2-methyl-4-phenoxyphenyl)-4-oxo-4,5-dihydro-3H-1-thia-3,5,8-triazaacenaphthylene-2-carboxamide] | 7.3 | 
C=CC(=O)N1CC[C@@H](NC(=O)c2sc3nccc4c3c2NC(=O)N4c2cnc(OC(C)C)cc2C)C1 (single isomer, unassigned) [Example 959, (R)—N-(1-Acryloylpyrrolidin-3-yl)-5-(*S)-(6-isopropoxy-4-methylpyridin-3-yl)-4-oxo-4,5-dihydro-3H-1-thia-3,5,8-triazaacenaphthylene-2-carboxamide] |  | BTK_I_binding pIC50 (unphosphorylated-BTK kinase domain, 50 nM Tracer 236): 7.5
C=CC(=O)N1CC(F)C[C@@H](NC(=O)c2sc3nccc4c3c2NC(=O)N4c2ccc(Oc3ccccc3)cc2C)C1 (stereo in doubt) [Example 3, N-((3R,5S)-1-Acryloyl-5-fluoropiperidin-3-yl)-5-(2-methyl-4-phenoxyphenyl)-4-oxo-4,5-dihydro-3H-1-thia-3,5,8-triazaacenaphthylene-2-carboxamide] |  | BTK_I_binding pIC50 (50 nM Tracer 236): 7.9
Cc1cc(Oc2ccccc2)ccc1N1C(=O)Nc2c(C(=O)NC3CCCN(C(=O)/C=C/CO)C3)sc3nccc1c23 (stereo in doubt) [Example 25, (S,E)-N-(1-(4-Hydroxybut-2-enoyl)piperidin-3-yl)-5-(2-methyl-4-phenoxyphenyl)-4-oxo-4,5-dihydro-3H-1-thia-3,5,8-triazaacenaphthylene-2-carboxamide] |  | BTK_I_binding pIC50 (50 nM Tracer 236): 7.5
C=CC(=O)N1CC(OC)[C@@H](NC(=O)c2sc3nccc4c3c2NC(=O)N4c2ccc(Oc3ccccc3)cc2C)C1 (stereo in doubt) [Example 34, N-((3S,4R)-1-Acryloyl-4-methoxypyrrolidin-3-yl)-5-(2-methyl-4-phenoxyphenyl)-4-oxo-4,5-dihydro-3H-1-thia-3,5,8-triazaacenaphthylene-2-carboxamide] |  | IC50 (50 nM Tracer 236): 25.1 nM
C=CC(=O)N1CC(O)[C@@H](NC(=O)c2sc3nccc4c3c2NC(=O)N4c2ccc(Oc3ccccc3)cc2C)C1 (stereo in doubt) [Example 50, N-((3S,4S)-1-Acryloyl-4-hydroxypyrrolidin-3-yl)-5-(2-methyl-4-phenoxyphenyl)-4-oxo-4,5-dihydro-3H-1-thia-3,5,8-triazaacenaphthylene-2-carboxamide] |  | BTK_I_binding pIC50 (50 nM Tracer 236): 7.5
